“Also recorded” adds a separate entry of the source. Values belong to the compound of their own block, whether it stands above or below them. Where a SMILES comes first, the peptide text is derived from it.
Key:
Tilapia pituitary cells = test: Gonadotropin release from tilapia pituitary dispersed cells; format: cell-based; details: 10 nM, 4 hr
Procedure: Tilapia pituitary cells were subjected to enzymatic dispersion. Pituitary cells were stimulated with 10 nM of the NKBa or NKF analogue, denoted by SEQ ID NO.44 and SEQ ID NO.46, respectively, for 4 hr, when the medium was collected. […] Stimulation of tilapia pituitary cells with GnRH at [10 nM] was used as a control.

zfTac3rb [1] = test: Receptor transactivation assay, SRE-Luc reporter (PKC activation), COS-7 cells expressing zfTac3rb; format: cell-based, zebrafish; details: mean ± SEM
Procedure: (§1) In order to study the signaling pathways of the novel zebrafish NKBs, the entire coding regions of zftac3ra (denoted by SEQ ID NO:6) or zftac3rb (denoted by SEQ ID NO:7), or the cDNA clone for human NK3R (obtained from the Missouri S&T cDNA Resource Center, were inserted into pcDNA3.1 (Invitrogen). The luciferase assay was conducted according to Biran et al., 2008 [4] COS-7 cells were grown in DMEM supplemented with 10% FBS, 1% glutamine, 100 U/ml penicillin, and […] streptomycin (Biological Industries) under 5% CO2 until confluent. Cotransfection of either pc-zftac3ra, pc-zftac3rb or pc-Htac3r (at 3 μg/plate), a reporter plasmid (at 2 μg/plate), and pCMV-β-galactosidase (at 1 μg/plate) was carried out with FuGENE 6.0 reagent (Roche). The cells were serum starved for 36 h, stimulated with vehicle or various concentrations of either human (Sigma) or zebrafish NKBs for 6 h, and then harvested and analyzed. Lysates prepared from the harvested cells were assayed for both luciferase activity and β-galactosidase activity, which was used as an internal standard to normalize the luciferase activity directed by the test plasmid. Transfection experiments were performed in triplicate with three independently isolated sets. Protein structure prediction of zebrafish NKBa, NKBb or NKF were performed on I-Tasser servers.
(§2) The response, binding selectivity and signal transduction pathways of the novel tachykinin receptors to their agonists were evaluated by functional expression analysis, using COS-7 cells.
(§3) The NKB analogues (i.e. the NKBa-analog, NKBb-analog and NKF-analog, as denoted by SEQ ID NO. 44-46) were first analyzed in comparison to their native forms in a transactivation assay, using reporter genes for specific signal transduction pathways. To validate the specificity of the serum-responsive element (SRE)-Luc and cAMP-responsive element (CRE)-Luc reporter systems, specific activators for PLC/PKC and AC/PKA signaling pathways were used in control experiments.
(§4) Thus, the ability of the three novel piscine peptides (namely, NKBa, NKBb and NKF, denoted by SEQ ID NO.40, 41 and 42), as well as the ability of the three analogous agonistic peptides, namely, NKBa-analog, NKBb-analog and NKF-analog, to differentially activate the different tac3 receptors, using SRE as a reporter gene that follows PKC activation and CRE as a reporter gene for the PKA pathway, was tested. Human NK3R (human NKB receptor) and human NKB served as controls.

Mature female carp = test: Gonadotropin release from mature carp in vivo (LH by ELISA)
Procedure: Mature female carp, just before spawning, were injected with NKBa, NKBb and NKF analogues, denoted by SEQ ID NO.44, SEQ ID NO.45 and SEQ ID NO.46, respectively (20 μg/kg body weight). LH levels was measured by specific ELISA, according to Aizen et al. 2012 [33].

zfTac3ra [2] = test: Receptor transactivation assay, SRE-Luc reporter (PKC activation), COS-7 cells expressing zfTac3ra; format: cell-based, zebrafish; details: mean ± SEM
Procedure: as §1, §2, §3, §4

Juvenile Tilapia = test: Gonadotropin release in vivo from juvenile tilapia (plasma LH and FSH by ELISA); set-up: species or system Tilapia (Oreochromis niloticus)
Procedure: Tilapia females (two-months old) were injected with the NKBa analogue denoted by SEQ ID NO.44 or the NKF analogue denoted by SEQ ID NO.46 at 0.5 or 5 μg/kg body weight (BW). Blood was withdrawn from the caudal vein and plasma Luteinizing hormone (LH) and Follicle-stimulating hormone (FSH) levels were measured using a homologous sensitive enzyme-linked immunosorbent assay (ELISA), as described by Aizen et al. 2007 [33].

zfTac3ra [3] = test: Receptor transactivation assay, CRE-Luc reporter (PKA activation), COS-7 cells expressing zfTac3ra; format: cell-based, zebrafish; details: mean ± SEM
Procedure: as §1, §2, §3, §4

zfTac3rb [4] = test: Receptor transactivation assay, CRE-Luc reporter (PKA activation), COS-7 cells expressing zfTac3rb; format: cell-based, zebrafish; details: mean ± SEM
Procedure: as §1, §2, §3, §4

[5] = target: T1, NKB receptors (human NKBR, zebrafish Tac3ra, Tac3rb) (Homo sapiens, UniProt P29371); test: Receptor transactivation assay, statements in words across SRE-Luc and CRE-Luc reporters and receptors; format: cell-based; details: human NKBR (huNK3R), in both signal transduction systems (SRE-Luc and CRE-Luc)
T1 construct: expressed in transfected cells; host or cells: COS-7
T1 sequence (P29371 1-465): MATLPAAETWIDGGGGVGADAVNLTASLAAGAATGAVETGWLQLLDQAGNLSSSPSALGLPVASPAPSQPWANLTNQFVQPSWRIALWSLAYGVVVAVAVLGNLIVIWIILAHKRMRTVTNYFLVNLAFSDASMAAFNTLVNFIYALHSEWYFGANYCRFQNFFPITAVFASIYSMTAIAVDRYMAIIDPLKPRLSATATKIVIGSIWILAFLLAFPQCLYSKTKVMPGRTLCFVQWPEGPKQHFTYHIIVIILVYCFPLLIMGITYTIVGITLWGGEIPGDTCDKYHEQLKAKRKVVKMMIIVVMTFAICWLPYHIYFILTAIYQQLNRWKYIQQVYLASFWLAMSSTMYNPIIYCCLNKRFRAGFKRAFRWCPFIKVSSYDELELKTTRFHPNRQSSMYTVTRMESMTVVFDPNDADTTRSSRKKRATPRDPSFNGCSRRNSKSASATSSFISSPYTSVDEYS
Procedure: as §1, §2, §4

[6] = tested on: NKB receptors (human NKBR, zebrafish Tac3ra, Tac3rb); test: as above; format: cell-based
Procedure: as §1, §2, §4

huNK3R = target: T2, huNK3R (Homo sapiens, UniProt P29371); test: Receptor transactivation assay, SRE-Luc reporter (PKC activation), COS-7 cells expressing human NK3R; format: cell-based
T2 construct: host or cells: COS-7
T2 sequence (P29371 1-465): T1 sequence (P29371 1-465)
Procedure: In order to study the signaling pathways of the novel zebrafish NKBs, the entire coding regions of zftac3ra (denoted by SEQ ID NO:6) or zftac3rb (denoted by SEQ ID NO:7), or the cDNA clone for human NK3R (obtained from the Missouri S&T cDNA Resource Center, were inserted into pcDNA3.1 (Invitrogen). The luciferase assay was conducted according to Biran et al., 2008 [4] COS-7 cells were grown in DMEM supplemented with 10% FBS, 1% glutamine, 100 U/ml penicillin, and 100 mg/ml streptomycin (Biological Industries) under 5% CO2 until confluent. Cotransfection of either pc-zftac3ra, pc-zftac3rb or pc-Htac3r (at 3 μg/plate), a reporter plasmid (at 2 μg/plate), and pCMV-β-galactosidase (at 1 μg/plate) was carried out with FuGENE 6.0 reagent (Roche). The cells were serum starved for 36 h, stimulated with vehicle or various concentrations of either human (Sigma) or zebrafish NKBs for 6 h, and then harvested and analyzed. Lysates prepared from the harvested cells were assayed for both luciferase activity and β-galactosidase activity, which was used as an internal standard to normalize the luciferase activity directed by the test plasmid. Transfection experiments were performed in triplicate with three independently isolated sets.

[7] = tested on: sexually mature female zebrafish; test: In vivo effect of NKBs in zebrafish: LH secretion after intraperitoneal injection; details: single intraperitoneal injection
Procedure: In vivo studies involved administering NKBa, NKBb or NKF and the analogues thereof, denoted by SEQ ID NO. 40-42 and 44-46, respectively to immature fish (20 fish/treatment). The circulating levels of E2, 11KT, LH and FSH were determined prior to hormonal manipulations, in order to confirm that these fish were indeed sexually immature. The fish were injected intramuscularly (i.m.) or intraperitonealy (i.p.) at various doses. Adult female zebra fish were injected intraperitoneally with 20 pmol/g body weight. Control fish were injected with saline. Plasma samples were collected at time 0, and specific times after the administration of the peptide/s, to determine the levels of E2, 11KT, LH and FSH.
To further characterize the role of the NKB/NKBR system in fish reproduction the in vivo biological function of zebrafish NKB peptides was next examined.

[8] = Table 7 (native peptides and analogues), PKC activation, read-out: EC50 using SRE, zfTac3rb
[9] = Table 7 (native peptides and analogues), PKC activation, read-out: EC50 using SRE, zfTac3ra
[10] = Juvenile Tilapia, injected at 0.5 or 5 μg/Kg BW
[11] = tilapia females two-months old, injected 5 μg/kg BW, listed as NKF analogue
[12] = Table 6 (native peptides and analogues), PKA activation, read-out: EC50 using CRE-Luc, zfTac3ra
[13] = Table 6 (native peptides and analogues), PKA activation, read-out: EC50 using CRE-Luc, zfTac3rb

EC50 (zfTac3rb [1]; [8]): 0.54 ± 0.39 nM
EC50 (zfTac3ra [2]; [9]): 0.31 nM
EC50 (zfTac3ra [3]; [12]): 9.14 ± 1.27 nM
EC50 (zfTac3rb [4]; [13]): 7.75 nM
Compound: CSCC[C@H](NC(=O)[C@H](CC(C)C)NC(=O)CNC(=O)[C@H](C(C)C)N(C)C(=O)[C@H](Cc1ccccc1)NC(=O)[C@H](CO)NC(=O)[C@H](CC(=O)O)NC(=O)CCC(=O)O)C(N)=O [zfNKF-analog, Succ-Asp-Ser-Phe-N(Me)Val-Gly-Leu-Met-NH2]
release of FSH from tilapia pituitary cells (Tilapia pituitary cells): significantly increased
LH level (Mature female carp; mature female carp just before spawning, injected 20 μg/kg body weight, listed as NKF analogue): significant elevation; also recorded: increased the level of LH significantly
persistence of the LH effect (Mature female carp; mature female carp, 20 μg/kg body weight, throughout the experiment): remained constant throughout the experiment
FSH secretion (Juvenile Tilapia; [10]): significant increase
LH secretion (Juvenile Tilapia; [10]): significant increase
plasma FSH level (Juvenile Tilapia; [11]): significant increase; also recorded: increased significantly
plasma LH level (Juvenile Tilapia; [11]): significant increase

EC50 (zfTac3rb [1]; Table 5, COS-7 cells, SRE-Luc follows PKC activation, read-out: EC50 SRE-Luc zfTac3rb): 1.47 ± 1.66 nM
EC50 (zfTac3rb [1]; [8]): 26.1 nM
potency [5]: high potency
effectiveness in the transactivation assay ([6]; native peptides versus analogues, Example 12): most effective peptide
SRE-driven luciferase activity, response (huNK3R; COS-7 cells transiently transfected with human NK3R): elicited an increased response
EC50 (huNK3R; Table 5, COS-7 cells, SRE-Luc follows PKC activation, mean ± SEM): 0.49 ± 0.18 nM
EC50 (zfTac3ra [2]; Table 5, COS-7 cells, SRE-Luc follows PKC activation, read-out: EC50 SRE-Luc zfTac3ra): 0.5 ± 0.17 nM
EC50 (zfTac3ra [2]; [9]): 0.62 ± 0.22 nM
EC50 (zfTac3ra [3]; Table 5, COS-7 cells, CRE-Luc follows PKA activation, read-out: EC50 CRE-Luc zfTac3ra): 5.75 ± 1.45 nM
EC50 (zfTac3ra [3]; [12]): 4.75 ± 1.48 nM
EC50 (zfTac3rb [4]; Table 5, COS-7 cells, CRE-Luc follows PKA activation, read-out: EC50 CRE-Luc zfTac3rb): 4.55 ± 1.57 nM
EC50 (zfTac3rb [4]; Table 6 (native peptides and analogues), PKA activation, listed as NKBa, read-out: EC50 using CRE-Luc, zfTac3rb): 16 nM
EC50 (zfTac3rb [4]; [13]): 16.4 ± 12 nM
Compound: CC[C@H](C)[C@H](NC(=O)[C@H](CC(=O)O)NC(=O)[C@H](Cc1c[nH]cn1)NC(=O)[C@H](CCSC)NC(=O)[C@@H](N)CCC(=O)O)C(=O)N[C@@H](Cc1ccccc1)C(=O)N[C@H](C(=O)NCC(=O)N[C@@H](CC(C)C)C(=O)N[C@@H](CCSC)C(N)=O)C(C)C [zfNKBa] (H-EMHDIFVGLM-NH2)
potency ([6]; both zebrafish tac3 receptors, in both signal transduction systems): most potent among all tachykinins examined
LH secretion ([7]; 20 pmol/g body weight, sexually mature female zebrafish): significant increase; also recorded: significant LH secretion
magnitude of the induced LH discharge ([7]; compared with GnRH): comparable with that observed in response to GnRH
